# Experimental data as given in ChEMBL document CHEMBL1201862, “PubChem BioAssay data set” (2004).
#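 A five-concentration, 48-hour dose response in 96-well plates underlies each endpoint, interpolated linearly between surrounding concentrations. At the GI50, growth is halved.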 Active and inactive are the calls of the source. No stated cut-off is given here; in the data, active = GI50 up to about 1.1 µM and inactive = higher.
# Columns and labels:
# Assay in all cases: growth of human tumour cells (NCI), 48 h
# HCT-116 = system: HCT-116
# MCF7 = system: MCF7
# 786-0 = system: 786-0
# A549 = system: A549
# SNB-75 = system: SNB-75
# TK-10 = system: TK-10
# OVCAR-8 = system: OVCAR-8
# RXF 393 = system: RXF 393
# SF-539 = system: SF-539
# EKVX = system: EKVX
# NCI-H226 = system: NCI-H226
# SW-620 = system: SW-620
# NCI-H522 = system: NCI-H522
# HT-29 = system: HT-29
# UACC-257 = system: UACC-257
# MDA-MB-435 = system: MDA-MB-435
# SK-OV-3 = system: SK-OV-3
# SK-MEL-28 = system: SK-MEL-28
SMILES,GI50 (HCT-116),GI50 (MCF7),GI50 (786-0),GI50 (A549),GI50 (SNB-75),GI50 (TK-10),GI50 (OVCAR-8),GI50 (RXF 393),GI50 (SF-539),GI50 (EKVX),GI50 (NCI-H226),GI50 (SW-620),GI50 (NCI-H522),GI50 (HT-29),GI50 (UACC-257),GI50 (MDA-MB-435),GI50 (SK-OV-3),GI50 (SK-MEL-28)
CN(C)c1ccc(C(=NNC(=O)c2cc3ccccc3[nH]2)c2ccc(N(C)C)cc2)cc1,0.422 µM (active),0.245 µM (active),1.53 µM (inactive),0.637 µM (active),0.632 µM (active),4.56 µM (inactive),0.608 µM (active),1.15 µM (inactive),0.573 µM (active),1.85 µM (inactive),35.8 µM (inactive),0.299 µM (active),0.275 µM (active),0.195 µM (active),4.04 µM (inactive),0.024 µM (active),1.62 µM (inactive),–
COc1cc(CNc2nc3ccccc3nc2C(=O)O)cc(OC)c1OC,> 100 µM (inactive),81.1 µM (inactive),> 100 µM (inactive),> 100 µM (inactive),76.7 µM (inactive),> 100 µM (inactive),> 100 µM (inactive),94 µM (inactive),> 100 µM (inactive),64.1 µM (inactive),> 100 µM (inactive),> 100 µM (inactive),71.9 µM (inactive),> 100 µM (inactive),> 100 µM (inactive),> 100 µM (inactive),69.8 µM (inactive),> 100 µM (inactive)
Clc1nc(NCCc2ccccc2)c2ncn(-c3ccccc3)c2n1,22 µM (inactive),24.9 µM (inactive),16.9 µM (inactive),26.4 µM (inactive),18 µM (inactive),21.1 µM (inactive),28.4 µM (inactive),24.8 µM (inactive),–,22.5 µM (inactive),24.1 µM (inactive),29.3 µM (inactive),16 µM (inactive),16.2 µM (inactive),15.8 µM (inactive),16.3 µM (inactive),20.4 µM (inactive),33.3 µM (inactive)
COc1ccc(NC(=O)CC(=O)n2nc(C)c(/N=N/c3cccc(C)c3)c2C)cc1,> 100 µM (inactive),> 100 µM (inactive),> 100 µM (inactive),> 100 µM (inactive),40.8 µM (inactive),> 100 µM (inactive),> 100 µM (inactive),> 100 µM (inactive),> 100 µM (inactive),31.4 µM (inactive),> 100 µM (inactive),> 100 µM (inactive),> 100 µM (inactive),> 100 µM (inactive),> 10 µM (inactive),> 100 µM (inactive),18.6 µM (inactive),> 100 µM (inactive)
N#Cc1nc(CN2C(=O)c3ccccc3C2=O)oc1N,> 100 µM (inactive),> 100 µM (inactive),> 100 µM (inactive),> 100 µM (inactive),> 100 µM (inactive),> 100 µM (inactive),> 100 µM (inactive),> 100 µM (inactive),> 100 µM (inactive),–,> 100 µM (inactive),> 100 µM (inactive),> 100 µM (inactive),> 100 µM (inactive),> 100 µM (inactive),> 100 µM (inactive),> 100 µM (inactive),> 100 µM (inactive)
Clc1cc(-c2ccccc2)nc2ccccc12,32.5 µM (inactive),23.7 µM (inactive),39.5 µM (inactive),35.6 µM (inactive),28.6 µM (inactive),34 µM (inactive),59.7 µM (inactive),31.7 µM (inactive),51.4 µM (inactive),31.9 µM (inactive),28.4 µM (inactive),43.6 µM (inactive),17 µM (inactive),32.1 µM (inactive),34.8 µM (inactive),26.2 µM (inactive),> 100 µM (inactive),57.5 µM (inactive)
CC(NNC(=O)c1ccc[n+]([BH2-]C#N)c1)c1ccccc1 (centres undefined),> 100 µM (inactive),> 100 µM (inactive),> 100 µM (inactive),–,> 100 µM (inactive),> 100 µM (inactive),> 100 µM (inactive),> 100 µM (inactive),> 100 µM (inactive),> 100 µM (inactive),> 100 µM (inactive),> 100 µM (inactive),> 100 µM (inactive),> 100 µM (inactive),> 100 µM (inactive),> 100 µM (inactive),–,> 100 µM (inactive)
O=Cc1cc2c(o1)C(=O)c1ccccc1C2=O,0.312 µM (active),0.213 µM (active),1.25 µM (inactive),1.32 µM (inactive),0.434 µM (active),2.7 µM (inactive),1.26 µM (inactive),1.35 µM (inactive),0.427 µM (active),2.58 µM (inactive),1.07 µM (active),0.318 µM (active),1.48 µM (inactive),0.581 µM (active),0.569 µM (active),0.197 µM (active),2.85 µM (inactive),0.405 µM (active)
